Activity calls are given as the source filed them.
What was measured:
[1] = tested on: HT-1080; experiment: HT1080 cell viability loss – fluorescence readout (AID 620); assay type: functional, cell-based; details: Homo sapiens
[2] = target: Glyceraldehyde-3-phosphate dehydrogenase (Homo sapiens, UniProt P04406)
[3] = target: T1, Luciferin 4-monooxygenase (Photinus pyralis, UniProt P08659); experiment: Counter Screen for Luciferase-based Assay Positives. [Related pubchem assays: 620, 618, 411 ]
[4] = HEK-293T cell viability reduction – luminescence, B-cell screen hits, cytotoxicity control for BCR NF-kB inhibitor project, dose response (AID 489021); assay type: functional, cell-based;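 further: HEK-293T cells carrying an NF-kB luciferase reporter; cells exposed to compound for about 14 hours before viability readout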
[5] = cells
[6] = target: T2, Heat shock factor protein 1 (Mus musculus, UniProt P38532); experiment: decrease of HSF1-responsive luciferase luminescence – cell-based, NIH3T3, dose retest, confirmation (AID 2382); assay type: functional;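 further: NIH3T3 fibroblasts with HSF1-driven luciferase reporter stressed by proteasome inhibitor MG132; luminescence from HSF1-driven luciferase expression after 8 hours of MG132 stress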
T2 sequence (P38532 whole entry): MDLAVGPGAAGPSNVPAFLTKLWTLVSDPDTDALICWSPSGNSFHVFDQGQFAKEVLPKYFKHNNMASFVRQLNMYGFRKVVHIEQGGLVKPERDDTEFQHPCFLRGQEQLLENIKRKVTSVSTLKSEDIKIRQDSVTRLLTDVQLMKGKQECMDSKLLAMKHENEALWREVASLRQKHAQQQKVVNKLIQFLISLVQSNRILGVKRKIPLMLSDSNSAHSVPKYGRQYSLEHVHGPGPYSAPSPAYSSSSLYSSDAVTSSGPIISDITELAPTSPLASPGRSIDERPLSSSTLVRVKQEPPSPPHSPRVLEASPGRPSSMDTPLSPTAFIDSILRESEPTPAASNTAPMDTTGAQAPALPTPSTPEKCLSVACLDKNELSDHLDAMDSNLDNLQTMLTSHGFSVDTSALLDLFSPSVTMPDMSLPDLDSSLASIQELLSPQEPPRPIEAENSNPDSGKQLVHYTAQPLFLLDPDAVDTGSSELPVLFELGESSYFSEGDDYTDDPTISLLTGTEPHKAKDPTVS

[7] = target: DNA dC->dU-editing enzyme APOBEC-3G (Homo sapiens, UniProt Q9HC16); experiment: Dose Response confirmation of small molecule APOBEC3G DNA Deaminase Inhibitors via a fluorescence-based single-stranded DNA deaminase assay. [Related pubchem assays (depositor defined):AID493012, AID493028]; assay type: functional
[8] = target: DNA dC->dU-editing enzyme APOBEC-3A (Homo sapiens, UniProt P31941); experiment: A3A deaminase inhibition for selectivity – biochemical, dose response (AID 504722); assay type: functional
[9] = luciferase reporter signal suppression in cells – H4 neuroglioma cells, luminescence, dose response (AID 1990); assay type: functional, cell-based
[10] = Luminescence Cell-Based Dose Response HTS to Identify Inhibitors of 5'UTR Stem-Loop Driven Prion Protein mRNA Translation in H4 Neuroglioblastoma Cells. [Related pubchem assays: 1827 (Project Summary), 1813 (Primary HTS)]; assay type: functional
[11] = alpha-synuclein stem-loop luciferase translation blockers – H4 neuroglioma cells, luminescence, confirmation (AID 1988); assay type: functional, cell-based
[12] = off-target signal loss in HeLa-CEM21 co-culture – HeLa F-luc CTL cells, cherry-picked, counter-screen for HIV-1 Env fusion inhibitor project, dose response (AID 652040); assay type: functional, cell-based;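 further: potency for signal decrease marking cytotoxic or nonspecific inhibition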
[13] = target: T1, Luciferin 4-monooxygenase; experiment: inhibition of purified Photinus pyralis luciferase – biochemical, luminescence, dose response (AID 1891)
[14] = target: Glucose-6-phosphate 1-dehydrogenase (Homo sapiens, UniProt P11413); experiment: inhibition of Homo sapiens G6PD, dose series – biochemical, fluorescence, selectivity assay for P. falciparum G6PD inhibitor project, dose response (AID 504792); assay type: functional
[15] = target: T3, Corticotropin-releasing factor receptor 2/Corticotropin-releasing factor-binding protein (Homo sapiens, UniProt P24387+Q13324); experiment: activators of CRF receptor 2 with binding protein – uHTS hits, confirmation (AID 602473); assay type: functional; details: read-out: EC50_Mean
T3 sequence (Q13324 whole entry): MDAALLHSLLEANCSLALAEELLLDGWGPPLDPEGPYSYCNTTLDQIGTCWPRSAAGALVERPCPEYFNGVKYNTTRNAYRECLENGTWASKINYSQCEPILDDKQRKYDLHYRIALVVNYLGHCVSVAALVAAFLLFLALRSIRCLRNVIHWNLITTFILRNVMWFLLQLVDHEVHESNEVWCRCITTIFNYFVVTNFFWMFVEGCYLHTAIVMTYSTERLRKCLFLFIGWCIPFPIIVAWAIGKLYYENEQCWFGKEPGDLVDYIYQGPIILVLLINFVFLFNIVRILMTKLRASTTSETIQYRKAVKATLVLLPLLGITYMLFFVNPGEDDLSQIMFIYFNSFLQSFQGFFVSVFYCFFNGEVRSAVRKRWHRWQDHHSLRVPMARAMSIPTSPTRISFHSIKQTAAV
T3 sequence (P24387 whole entry): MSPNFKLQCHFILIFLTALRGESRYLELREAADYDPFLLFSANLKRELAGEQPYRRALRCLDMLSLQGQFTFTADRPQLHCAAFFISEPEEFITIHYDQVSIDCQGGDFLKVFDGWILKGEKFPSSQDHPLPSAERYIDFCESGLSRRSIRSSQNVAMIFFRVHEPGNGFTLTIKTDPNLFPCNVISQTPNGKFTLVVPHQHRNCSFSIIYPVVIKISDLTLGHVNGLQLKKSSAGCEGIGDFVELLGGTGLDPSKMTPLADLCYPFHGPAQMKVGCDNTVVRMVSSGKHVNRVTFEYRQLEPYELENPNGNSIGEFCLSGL

[16] = target: T3, Corticotropin-releasing factor receptor 2/Corticotropin-releasing factor-binding protein; experiment: Dose Response confirmation of uHTS hits for small molecule antagonists of the CRF-binding protein and CRF-R2 receptor complex.; assay type: functional; details: read-out: IC50_Mean
[17] = target: T4, Short transient receptor potential channel 4 (Mus musculus, UniProt Q9QUQ5); experiment: block of DAMGO-driven TRPC4 calcium entry – cell-based, HEK293 TRPC4/mu-opioid, Fluo-4 calcium, dose response (AID 434942); assay type: functional;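 further: potency of inhibitors blocking the TRPC4 calcium response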
T4 sequence (Q9QUQ5 whole entry): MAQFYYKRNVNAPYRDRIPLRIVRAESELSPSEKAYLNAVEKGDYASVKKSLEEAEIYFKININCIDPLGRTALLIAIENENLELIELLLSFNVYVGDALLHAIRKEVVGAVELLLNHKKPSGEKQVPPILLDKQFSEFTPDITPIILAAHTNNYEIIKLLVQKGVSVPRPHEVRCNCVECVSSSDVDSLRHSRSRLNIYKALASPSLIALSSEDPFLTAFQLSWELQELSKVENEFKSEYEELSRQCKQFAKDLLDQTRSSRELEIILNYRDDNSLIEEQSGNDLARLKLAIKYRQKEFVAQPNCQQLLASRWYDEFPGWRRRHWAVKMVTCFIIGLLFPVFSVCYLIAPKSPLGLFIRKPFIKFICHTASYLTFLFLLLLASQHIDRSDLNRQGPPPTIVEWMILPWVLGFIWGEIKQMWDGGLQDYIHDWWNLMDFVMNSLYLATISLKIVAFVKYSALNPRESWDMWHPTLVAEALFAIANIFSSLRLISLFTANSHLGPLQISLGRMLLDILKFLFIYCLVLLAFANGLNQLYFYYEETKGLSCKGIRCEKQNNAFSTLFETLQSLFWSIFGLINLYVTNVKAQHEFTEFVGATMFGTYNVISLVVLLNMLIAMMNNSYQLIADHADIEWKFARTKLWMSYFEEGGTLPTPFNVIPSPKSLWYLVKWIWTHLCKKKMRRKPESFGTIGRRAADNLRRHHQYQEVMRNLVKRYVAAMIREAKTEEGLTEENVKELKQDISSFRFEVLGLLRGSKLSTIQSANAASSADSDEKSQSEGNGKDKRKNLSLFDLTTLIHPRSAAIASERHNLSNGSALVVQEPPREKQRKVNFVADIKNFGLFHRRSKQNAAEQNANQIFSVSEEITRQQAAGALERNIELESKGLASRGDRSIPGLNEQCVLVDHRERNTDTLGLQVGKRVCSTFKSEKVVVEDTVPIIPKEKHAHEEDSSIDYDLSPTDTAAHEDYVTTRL

[18] = viability of uninfected HEp-2 cells – cell-based, HTS, cytotoxicity control for RSV inhibitor project, dose response (AID 2410); assay type: functional; details: human respiratory syncytial virus
[19] = target: Eukaryotic translation initiation factor 4E (Mus musculus, UniProt P63073); experiment: blockers of eIF4G binding by eIF4E – biochemical, TR-FRET, dose response (AID 855); assay type: functional;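 further: potency for disrupting eIF4E binding to eIF4GI seen as loss of FRET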
[20] = target: Induced myeloid leukemia cell differentiation protein Mcl-1 (Homo sapiens, UniProt Q07820); assay type: functional
[21] = target: T5, Coagulation factor XII (Homo sapiens, UniProt P00748); assay type: functional;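 further: activated factor XIIa alpha cleaving a fluorogenic AMC peptide substrate; inhibitor potency from loss of enzyme activity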
T5 sequence (P00748 whole entry): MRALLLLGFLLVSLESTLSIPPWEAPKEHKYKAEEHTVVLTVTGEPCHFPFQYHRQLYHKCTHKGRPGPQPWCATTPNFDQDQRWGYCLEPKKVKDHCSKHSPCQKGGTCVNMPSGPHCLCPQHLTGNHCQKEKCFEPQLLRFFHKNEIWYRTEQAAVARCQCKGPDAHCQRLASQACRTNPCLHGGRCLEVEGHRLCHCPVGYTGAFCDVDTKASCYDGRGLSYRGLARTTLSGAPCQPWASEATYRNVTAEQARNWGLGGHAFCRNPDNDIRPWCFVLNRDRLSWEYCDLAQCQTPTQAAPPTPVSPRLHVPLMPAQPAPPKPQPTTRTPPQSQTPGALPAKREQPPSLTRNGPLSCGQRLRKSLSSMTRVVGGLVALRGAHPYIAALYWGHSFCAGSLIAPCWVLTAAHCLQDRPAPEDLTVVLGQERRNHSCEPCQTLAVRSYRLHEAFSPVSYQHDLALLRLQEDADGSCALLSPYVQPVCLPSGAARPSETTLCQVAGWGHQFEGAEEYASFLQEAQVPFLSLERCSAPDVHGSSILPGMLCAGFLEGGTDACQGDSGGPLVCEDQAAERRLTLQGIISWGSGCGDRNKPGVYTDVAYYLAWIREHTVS

[22] = Dd2 malaria parasite growth inhibition potency – SYBR Green, dry powder samples, dose response (AID 1159566); assay type: functional, cell-based;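 further: potency for growth inhibition with lower SYBR green DNA signal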
[23] = P. falciparum Dd2 growth inhibitors, dose response, SYBR Green, cherry-picked samples (AID 1159567); assay type: functional, cell-based
[24] = growth inhibition of yeast DHODH-expressing 3D7 parasites – SYBR Green, dry powder samples, dose response (AID 1159570); assay type: functional, cell-based;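 further: parasite growth measured after 72 hours of compound exposure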
[25] = growth inhibition of PfATP4-mutant resistant parasites – NITD609-resistant line, SYBR Green, dry powder, dose response (AID 1159571); assay type: functional, cell-based;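 further: parasites synchronized at ring stage by sorbitol before testing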

DNA dC->dU-editing enzyme APOBEC-3G, sequence (Q9HC16 whole entry): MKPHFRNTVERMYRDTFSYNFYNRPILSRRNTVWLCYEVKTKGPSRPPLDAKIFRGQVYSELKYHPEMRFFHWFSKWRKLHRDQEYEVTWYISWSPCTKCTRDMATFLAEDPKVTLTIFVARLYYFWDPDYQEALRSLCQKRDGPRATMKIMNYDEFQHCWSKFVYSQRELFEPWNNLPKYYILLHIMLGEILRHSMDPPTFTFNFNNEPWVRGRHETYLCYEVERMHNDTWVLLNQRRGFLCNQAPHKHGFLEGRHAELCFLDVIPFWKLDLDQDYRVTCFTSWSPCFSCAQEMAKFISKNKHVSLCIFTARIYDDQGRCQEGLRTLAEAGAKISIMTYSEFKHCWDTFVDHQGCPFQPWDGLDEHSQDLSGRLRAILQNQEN
DNA dC->dU-editing enzyme APOBEC-3A, sequence (P31941 whole entry): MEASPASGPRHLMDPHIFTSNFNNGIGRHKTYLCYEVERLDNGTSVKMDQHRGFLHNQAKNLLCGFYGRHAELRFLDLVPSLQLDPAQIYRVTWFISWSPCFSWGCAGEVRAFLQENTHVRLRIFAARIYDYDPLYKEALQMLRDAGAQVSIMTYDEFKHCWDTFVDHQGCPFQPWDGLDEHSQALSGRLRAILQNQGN
T1 sequence (P08659 whole entry): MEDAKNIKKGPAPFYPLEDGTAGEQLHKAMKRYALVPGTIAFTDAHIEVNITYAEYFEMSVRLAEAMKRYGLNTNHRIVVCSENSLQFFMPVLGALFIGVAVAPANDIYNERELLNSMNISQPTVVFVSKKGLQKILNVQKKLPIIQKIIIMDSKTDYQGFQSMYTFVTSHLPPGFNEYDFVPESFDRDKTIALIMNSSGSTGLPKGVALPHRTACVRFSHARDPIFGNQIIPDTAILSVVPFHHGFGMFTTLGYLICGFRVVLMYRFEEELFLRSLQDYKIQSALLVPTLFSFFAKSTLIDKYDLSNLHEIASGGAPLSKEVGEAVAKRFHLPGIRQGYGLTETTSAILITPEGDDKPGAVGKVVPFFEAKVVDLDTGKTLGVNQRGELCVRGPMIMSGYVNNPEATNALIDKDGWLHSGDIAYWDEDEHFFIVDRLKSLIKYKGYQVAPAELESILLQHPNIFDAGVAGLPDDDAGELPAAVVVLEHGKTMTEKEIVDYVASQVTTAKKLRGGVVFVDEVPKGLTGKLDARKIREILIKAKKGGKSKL
Eukaryotic translation initiation factor 4E, sequence (P63073 whole entry): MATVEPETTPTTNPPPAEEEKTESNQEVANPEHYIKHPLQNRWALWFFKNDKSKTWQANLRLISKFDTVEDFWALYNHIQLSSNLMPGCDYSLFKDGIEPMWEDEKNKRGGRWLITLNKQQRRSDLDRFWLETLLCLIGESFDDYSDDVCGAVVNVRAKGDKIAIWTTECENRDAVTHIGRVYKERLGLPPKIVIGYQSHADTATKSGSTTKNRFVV
Glyceraldehyde-3-phosphate dehydrogenase, sequence (P04406 whole entry): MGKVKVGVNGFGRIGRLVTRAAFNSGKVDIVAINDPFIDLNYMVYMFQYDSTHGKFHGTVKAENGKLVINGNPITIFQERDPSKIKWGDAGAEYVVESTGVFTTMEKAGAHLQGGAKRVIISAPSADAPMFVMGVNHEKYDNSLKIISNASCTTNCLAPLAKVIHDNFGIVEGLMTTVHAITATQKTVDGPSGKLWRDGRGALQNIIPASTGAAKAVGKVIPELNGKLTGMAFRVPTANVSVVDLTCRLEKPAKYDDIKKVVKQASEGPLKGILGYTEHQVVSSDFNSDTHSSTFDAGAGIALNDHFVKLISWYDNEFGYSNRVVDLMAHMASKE
Induced myeloid leukemia cell differentiation protein Mcl-1, sequence (Q07820 whole entry): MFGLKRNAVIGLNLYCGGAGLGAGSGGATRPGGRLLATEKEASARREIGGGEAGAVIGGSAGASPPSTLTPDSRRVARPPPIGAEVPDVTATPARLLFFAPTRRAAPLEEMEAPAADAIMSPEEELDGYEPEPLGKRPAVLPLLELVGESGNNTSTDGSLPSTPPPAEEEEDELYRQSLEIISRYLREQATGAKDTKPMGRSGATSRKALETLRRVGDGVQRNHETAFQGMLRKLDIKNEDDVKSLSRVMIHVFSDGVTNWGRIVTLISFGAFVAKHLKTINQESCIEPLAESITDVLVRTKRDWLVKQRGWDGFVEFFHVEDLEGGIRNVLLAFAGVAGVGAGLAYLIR
Glucose-6-phosphate 1-dehydrogenase, sequence (P11413 whole entry): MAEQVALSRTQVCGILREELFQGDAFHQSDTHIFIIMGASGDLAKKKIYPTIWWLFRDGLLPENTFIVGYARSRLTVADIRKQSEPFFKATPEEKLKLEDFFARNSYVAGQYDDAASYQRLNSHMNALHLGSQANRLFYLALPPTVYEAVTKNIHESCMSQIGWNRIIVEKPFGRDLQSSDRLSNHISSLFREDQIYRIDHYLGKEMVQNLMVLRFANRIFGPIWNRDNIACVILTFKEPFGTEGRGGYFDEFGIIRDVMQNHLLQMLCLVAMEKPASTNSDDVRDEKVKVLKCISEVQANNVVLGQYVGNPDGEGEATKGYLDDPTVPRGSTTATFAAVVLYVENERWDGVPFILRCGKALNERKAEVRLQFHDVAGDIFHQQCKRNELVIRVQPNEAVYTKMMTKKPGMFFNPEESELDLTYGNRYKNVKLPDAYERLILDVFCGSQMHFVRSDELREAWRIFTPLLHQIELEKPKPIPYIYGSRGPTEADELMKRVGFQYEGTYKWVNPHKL

For `Cc1ccoc1C(=O)Nc1ccc(CC(=O)O)cc1`, the EC50 [1] was > 50 µM (not active), the IC50 [2] was > 100 µM (not active) and the EC50 [3] was 1.12 µM (active). The IC50 [4] was > 80 µM (inactive).
In the case of `COCCn1c(-c2ccc(Cl)cc2Cl)nc2c(c(=O)c3ccccc3n2C)c1=O`, the IC50 [5] is reported as > 50 µM (active).
In the case of `CC1(C)Cc2ccccc2-c2n[nH]c(=S)n21`, the EC50 [6] is reported as > 195 µM (not active), the IC50 [7] is reported as 4.33 µM (active) and the IC50 [8] is reported as > 100 µM (inactive).
In the case of `COc1ccc(OC)c(-c2cc(C(=O)Nc3c(C)nn(Cc4ccc(Cl)cc4)c3C)no2)c1`, the EC50 [9] is reported as 13.6 µM (active), the EC50 [10] is reported as 19.5 µM (active) and the EC50 [11] is reported as 13.9 µM (active). For the same compound, the AC50 [12] was > 70 µM (inactive).
For `Cc1[nH]c(=S)c(C#N)c(C)c1CCC#N`, the EC50 [13] was > 112 µM (not active), the IC50 [7] was 9.7 µM (active) and the IC50 [14] was > 80 µM (inactive). For the same compound, the IC50 [8] was > 100 µM (inactive).
For `Cc1nn(-c2cccc(Cl)c2)c2nc(C(F)(F)F)[nH]c(=O)c12`, the EC50 [15] was > 53 µM (inactive), the IC50 [16] was 2.6 µM (active) and the EC50 [17] was 3.35 µM (active).
For `O=C(Nc1cccc(S(=O)(=O)Nc2ccccc2F)c1)c1ccc2ccccc2n1`, the IC50 [7] was 15.6 µM (active) and the IC50 [8] was > 100 µM (inactive).
With `CCOC(=O)C1(Cc2cccc(OC)c2)CCN(Cc2cccn2-c2nccs2)CC1` the CC50 [18] was > 50 µM (active) and the IC50 [5] was 10.2 µM (active).
With `CCNC(=O)C1=C(O)c2sccc2N(C)S1(=O)=O` the IC50 [19] was 50 µM (inactive).
With `Fc1cccc(-c2n[nH]c(=S)n2-c2ccccc2)c1` the IC50 [7] was 4.26 µM (active) and the IC50 [8] was > 100 µM (inactive).
With `Cc1cc(C)nc(NC(=N)Nc2ccc(CC(=O)OC(C)C)cc2)n1` the AC50 [12] was 22.1 µM (active).
In the case of `CC(C)C(=O)Nc1ccc(-c2nc3cccnc3o2)cc1`, the EC50 [1] is reported as > 50 µM (not active) and the EC50 [3] is reported as < 0.2 µM (active).
For `O=C1NC(c2ccc3c(c2)OCO3)Oc2ccccc21` (stereo not drawn), the IC50 [19] was > 64 µM (inactive).
For `Cc1ccccc1CC1(CO)CCCN(Cc2c(C)nn(C)c2Cl)C1` (stereo not drawn), the CC50 [18] was 49.4 µM (active) and the IC50 [5] was 7.18 µM (active).
For `O=C(N/N=C/c1ccc(O)cc1)c1cccc(N/N=C/c2ccc(O)cc2)c1`, the IC50 [20] was 6.06 µM (active).
For `C/C(=N\NC(=O)c1cccc(N/N=C(\C)c2ccccc2)c1)c1ccccc1`, the IC50 [21] was > 50 µM (inactive).
With `C[C@@H]1CN([C@@H](C)CO)C(=O)c2cccc(NC(=O)c3ccc(-c4nccs4)cc3)c2O[C@H]1CN(C)Cc1ccc(Cl)c(Cl)c1` the AC50 [22] was 0.922 µM (active), the AC50 [23] was 1.7 µM (active) and the AC50 [24] was 1.25 µM (active). For the same compound, the AC50 [25] was 0.692 µM (active).

— ChEMBL document CHEMBL1201862, “PubChem BioAssay data set” (2004)
